Results taken from patent US12030908B2, “Antimicrobial compounds, compositions, and uses thereof” (Lakewood Amedex, Inc., priority 2017, dated 2024).
Entries after “also recorded” stand apart in the source; their conditions may differ.

How the values were obtained:
[1] = test system: wild type P. aeruginosa (PAO1; K2732); assay: Bacterial cytological profiling at pH 4, 5.5, 7 (Example 7), P. aeruginosa; format: cell-based; conditions: pH 7, 225 mg/mL
Method: This bacterial cytological profiling (BCP) investigation uses methods and materials described previously by Nonejuie, P., Burkart, M., Poglianoa, K., Pogiano, J. (2013). Bacterial cytological profiling rapidly identifies the cellular pathways targeted by antibacterial molecules. Proc. Natl. Acad. Sci. U.S.A. 110(40):16169-16174. doi: 10.1073/pnas.1311066110.
For viable cell counts, cells are grown to OD600≈0.4 and diluted 1:1 into buffered or unbuffered media containing various compound concentrations. Samples are then collected and serially diluted (1:10) on a 96 well plate. Five microliters from each well are spotted on LB plates, incubated at 30° C., and viable cells are counted the next day.
Samples are collected at 10, 30, 120, and 240 min of exposure for viable cell count and imaging. For imaging, E. coli and S. aureus 200 μL of treated cells per time point are stained with 0.8 μg/mL FM4-64, 1.5 μg/mL DAPI, and 0.4 μM SYTOXGreen (Molecular Probes/Invitrogen). P. aeruginosa samples are stained 0.4 μM SYTOX Green, 28 μg/mL DAPI, and 1 μg/mL FM 4-64. Cells are transferred to an agarose pad (20% LB, 1% agarose) for imaging.
For Nu-3 and Nu-8 stocks (at pH 4, 5.5 and 7), stock concentration is 500 mg/mL. For pH 4, the stocks are prepared by dissolving Nu-3 in 25 mM citrate buffer and Nu-8 in 350 mM citric acid. […]

[2] = test system: Streptococcus pneumoniae (PRSP); assay: MIC at pH 3.5, CLSI, Mueller-Hinton broth; format: cell-based
[3] = test system: Acinetobacter baumannii (ATCC 19606); assay: Clinical signs in the Acinetobacter baumannii lung infection model (Example 25); format: in vivo, BALB/c mice; conditions: treated groups vs control mice
Text: There was a >3 Log10) CFU/g lung decrease following treatment for 5 days when compared to the vehicle on day 1.

[4] = test system: Aspergillus fumigatus (ATCC13073); assay: Individual mouse clinical signs (animal condition) in the Aspergillus fumigatus lung infection model (Example 24); format: in vivo, BALB/c mice; parameters: key: NAD = no abnormality detected
[5] = Part C, 1×10^3 conidia/animal, Nu-8 (10%), 3 doses, once daily for 3 days, aerosol, individual animals
[6] = Part D, 1×10^2 conidia/animal, Nu-8 (10%), 5 doses, once daily for 5 days, individual animals

Q: How did the cell growth [1] turn out when `CCCCOP(=O)(O)OC[C@H]1O[C@@H](n2ccc(N)nc2=O)C[C@@H]1OP(=O)(O)OCCCC` [Nu-8, sodium ((2R,3S,5R)-5-(4-amino-2-oxopyrimidin-1(2H)-yl)-3-((butoxyoxidophosphor-yl)oxy)tetrahydrofuran-2-yl)methyl butyl phosphate] was run?
A: slightly lower than that at pH 7 alone

Q: And the cell permeability ([1]; 10 min, not persistent)?
A: ~37%

Q: What about the “Nu-8 MIC (mg/mL) at pH 3.5” value [2] of the same molecule?
A: 9.38-18.75 mg/mL

Q: What about the “piloerection, loss of grooming and respiratory symptoms” value [3] of the same molecule?
A: decreased piloerection, nasal discharge and gasping symptoms; also recorded: a marked decrease was observed in treated groups

Q: What about the “Animal Condition Day 1” value ([4]; Part A, 3 doses, once daily for 3 days, individual animals 19-24) of the same molecule?
A: Normal

Q: What about the “Animal Condition Day 1” value ([4]; Part A, 5 doses, once daily for 5 days, individual animals 25-30) of the same molecule?
A: Normal

Q: And the “Animal Condition Day 1” value ([4]; Part B, 3 doses, once daily for 3 days, individual animals 23-30)?
A: NAD

Q: What about the “Animal Condition Day 1” value ([4]; Part B, single dose, individual animals 15-22) of the same molecule?
A: NAD

Q: What about the “Animal Condition Day 1” value [4, 5] of the same molecule?
A: NAD

Q: And the “Animal Condition Day 2” value [4, 5]?
A: Animal dull

Q: What about the “Animal Condition Day 3” value [4, 5] of the same molecule?
A: Animal dull; also recorded: Moribund

Q: And the “Animal Condition Day 1” value [4, 6]?
A: NAD

Q: What about the “Animal Condition Day 2” value [4, 6] of the same molecule?
A: NAD

Q: And the “Animal Condition Day 3” value [4, 6]?
A: NAD

Q: And the “Animal Condition Day 4” value [4, 6]?
A: NAD

Q: What about the “Animal Condition Day 5” value [4, 6] of the same molecule?
A: NAD
